Holding throughout (experiment): relative viability (nuclei count vs DMSO), 5 days (fraction); higher = more cells survive
Compound in the assay “Alpelisib + Decitabine”: Cc1nc(NC(=O)N2CCC[C@H]2C(N)=O)sc1-c1ccnc(C(C)(C)C(F)(F)F)c1 [Alpelisib] + Nc1ncn([C@H]2C[C@H](O)[C@@H](CO)O2)c(=O)n1 [Decitabine] (partner 2 µM)
The method in brief: (§1)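 A single step with final 0.05% Triton X-100, 1% formaldehyde and 1 ug/ml Hoechst fixed the cells and stained nuclei 5 days after treatment. Lung cancer cell lines in 1536-well plates had been treated by pin tool the day after seeding with one drug alone or a fixed anchor-drug dose plus five library-drug doses (not always all listed) in √10 steps, and nuclei were counted on 4× images. Relative viability is the ratio of nuclei in treated wells to nuclei in vehicle wells, taken as the median of duplicate plates.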

Compound in the assay “Alpelisib + OSI-027”: Cc1nc(NC(=O)N2CCC[C@H]2C(N)=O)sc1-c1ccnc(C(C)(C)C(F)(F)F)c1 [Alpelisib] + COc1cccc2cc(-c3nc([C@H]4CC[C@H](C(=O)O)CC4)n4ncnc(N)c34)[nH]c12 [OSI-027] (partner 0.5 µM)
In a few lines: as §1

Compound in the assay “Vemurafenib + Lapatinib”: CCCS(=O)(=O)Nc1ccc(F)c(C(=O)c2c[nH]c3ncc(-c4ccc(Cl)cc4)cc23)c1F [Vemurafenib] + CS(=O)(=O)CCNCc1ccc(-c2ccc3ncnc(Nc4ccc(OCc5cccc(F)c5)c(Cl)c4)c3c2)o1 [Lapatinib] (partner 2 µM)
The method in brief: as §1

Compound in the assay “Alpelisib + Pictilisib”: Cc1nc(NC(=O)N2CCC[C@H]2C(N)=O)sc1-c1ccnc(C(C)(C)C(F)(F)F)c1 [Alpelisib] + CS(=O)(=O)N1CCN(Cc2cc3nc(-c4cccc5[nH]ncc45)nc(N4CCOCC4)c3s2)CC1 [Pictilisib] (partner 1 µM)
The method in brief:
as §1

These results are taken from the supplement of paper PMC10307832.

On to NCI-H2087, for which the relative viability in the assay with Alpelisib + Decitabine (first compound 0.04 µM) was 0.311; with Alpelisib + Decitabine (first compound 0.1265 µM), 0.203; in the assay with Alpelisib + Decitabine (first compound 0.4 µM) it was 0.325; with Alpelisib + Decitabine (first compound 1.265 µM), 0.26; in the assay with Alpelisib + Decitabine (first compound 4 µM) it was 0.135; in the assay with Alpelisib + OSI-027 (first compound 0.04 µM), 0.503. In addition, the relative viability with Alpelisib + OSI-027 (first compound 0.1265 µM) was 0.484; in the assay with Alpelisib + OSI-027 (first compound 0.4 µM), 0.482; with Alpelisib + OSI-027 (first compound 1.265 µM), 0.342; with Alpelisib + OSI-027 (first compound 4 µM), 0.336; with Vemurafenib + Lapatinib (first compound 0.03162 µM), 0.761; with Vemurafenib + Lapatinib (first compound 0.1 µM), 0.981. Moreover, the relative viability in the assay with Vemurafenib + Lapatinib (first compound 1 µM) worked out at 0.967; in the assay with Alpelisib + Pictilisib (first compound 0.04 µM), 0.801; with Alpelisib + Pictilisib (first compound 0.1265 µM), 0.847; in the assay with Alpelisib + Pictilisib (first compound 0.4 µM), 1.01; with Alpelisib + Pictilisib (first compound 1.265 µM), 0.827; with Alpelisib + Pictilisib (first compound 4 µM), 0.659.
As to NCI-H520, the relative viability in the assay with Alpelisib + Decitabine (first compound 0.04 µM) is 0.422; with Alpelisib + Decitabine (first compound 0.1265 µM), 0.531; with Alpelisib + Decitabine (first compound 0.4 µM), 0.481; with Alpelisib + Decitabine (first compound 1.265 µM), 0.442; with Alpelisib + Decitabine (first compound 4 µM), 0.412; with Alpelisib + OSI-027 (first compound 0.04 µM) it was 0.21. The relative viability with Alpelisib + OSI-027 (first compound 0.1265 µM) came to 0.239; with Alpelisib + OSI-027 (first compound 0.4 µM) it was 0.229; with Alpelisib + OSI-027 (first compound 1.265 µM) it was 0.188; with Alpelisib + OSI-027 (first compound 4 µM) it was 0.189; in the assay with Vemurafenib + Lapatinib (first compound 0.03162 µM) it was 0.759; with Vemurafenib + Lapatinib (first compound 0.1 µM), 0.839. Further, the relative viability worked out at 0.859 in the assay with Vemurafenib + Lapatinib (first compound 0.3162 µM); 0.751 with Vemurafenib + Lapatinib (first compound 1 µM); 0.244 with Alpelisib + Pictilisib (first compound 0.04 µM); 0.316 in the assay with Alpelisib + Pictilisib (first compound 0.1265 µM); 0.318 in the assay with Alpelisib + Pictilisib (first compound 0.4 µM); 0.304 with Alpelisib + Pictilisib (first compound 1.265 µM). Moreover, the relative viability with Alpelisib + Pictilisib (first compound 4 µM) was 0.289.
As for HCC-78, the relative viability in the assay with Alpelisib + Decitabine (first compound 0.04 µM) worked out at 0.705; with Alpelisib + Decitabine (first compound 0.1265 µM) it was 0.67; in the assay with Alpelisib + Decitabine (first compound 0.4 µM), 0.657; in the assay with Alpelisib + Decitabine (first compound 1.265 µM) it was 0.562; with Alpelisib + Decitabine (first compound 4 µM), 0.533; with Alpelisib + OSI-027 (first compound 0.04 µM), 0.378. In addition, the relative viability worked out at 0.306 in the assay with Alpelisib + OSI-027 (first compound 0.1265 µM); 0.324 with Alpelisib + OSI-027 (first compound 0.4 µM); 0.335 with Alpelisib + OSI-027 (first compound 1.265 µM); 0.318 with Alpelisib + OSI-027 (first compound 4 µM); 0.725 with Vemurafenib + Lapatinib (first compound 0.03162 µM); 0.832 with Vemurafenib + Lapatinib (first compound 0.1 µM). For the same cell line, the relative viability with Vemurafenib + Lapatinib (first compound 0.3162 µM) was 0.982; with Vemurafenib + Lapatinib (first compound 1 µM) it was 0.386; with Alpelisib + Pictilisib (first compound 0.04 µM) it was 0.21; with Alpelisib + Pictilisib (first compound 0.1265 µM) it was 0.187; in the assay with Alpelisib + Pictilisib (first compound 0.4 µM) it was 0.218; with Alpelisib + Pictilisib (first compound 1.265 µM), 0.222. The relative viability with Alpelisib + Pictilisib (first compound 4 µM) was 0.228.
COR-L 105: the relative viability with Alpelisib + Decitabine (first compound 0.04 µM) was 0.55; in the assay with Alpelisib + Decitabine (first compound 0.1265 µM), 0.736; with Alpelisib + Decitabine (first compound 0.4 µM) it was 0.706; with Alpelisib + Decitabine (first compound 1.265 µM) it was 0.683; with Alpelisib + Decitabine (first compound 4 µM), 0.569; with Alpelisib + OSI-027 (first compound 0.04 µM) it was 0.715. Also, the relative viability with Alpelisib + OSI-027 (first compound 0.1265 µM) came to 0.567; with Alpelisib + OSI-027 (first compound 0.4 µM) it was 0.846; with Alpelisib + OSI-027 (first compound 1.265 µM), 0.527; with Alpelisib + OSI-027 (first compound 4 µM), 0.513; in the assay with Vemurafenib + Lapatinib (first compound 0.03162 µM) it was 0.348; with Vemurafenib + Lapatinib (first compound 0.3162 µM), 0.32. For the same cell line, the relative viability with Vemurafenib + Lapatinib (first compound 1 µM) is 0.373; in the assay with Alpelisib + Pictilisib (first compound 0.04 µM), 0.39; with Alpelisib + Pictilisib (first compound 0.1265 µM) it was 0.352; in the assay with Alpelisib + Pictilisib (first compound 0.4 µM), 0.435; with Alpelisib + Pictilisib (first compound 1.265 µM) it was 0.378; with Alpelisib + Pictilisib (first compound 4 µM), 0.341.
In the case of NCI-H1437, the relative viability with Alpelisib + Decitabine (first compound 0.04 µM) is 0.562; in the assay with Alpelisib + Decitabine (first compound 0.1265 µM) it was 0.579; in the assay with Alpelisib + Decitabine (first compound 0.4 µM) it was 0.609; in the assay with Alpelisib + Decitabine (first compound 1.265 µM) it was 0.527; with Alpelisib + Decitabine (first compound 4 µM) it was 0.527; with Alpelisib + OSI-027 (first compound 0.04 µM), 0.796. Moreover, the relative viability came out at 0.842 with Alpelisib + OSI-027 (first compound 0.1265 µM); 0.754 in the assay with Alpelisib + OSI-027 (first compound 0.4 µM); 0.527 with Alpelisib + OSI-027 (first compound 1.265 µM); 0.319 with Alpelisib + OSI-027 (first compound 4 µM); 0.748 with Vemurafenib + Lapatinib (first compound 0.03162 µM); 0.793 with Vemurafenib + Lapatinib (first compound 0.1 µM). The relative viability stood at 0.698 in the assay with Vemurafenib + Lapatinib (first compound 0.3162 µM); 0.876 with Vemurafenib + Lapatinib (first compound 1 µM); 0.416 in the assay with Alpelisib + Pictilisib (first compound 0.04 µM); 0.482 with Alpelisib + Pictilisib (first compound 0.1265 µM); 0.441 with Alpelisib + Pictilisib (first compound 0.4 µM); 0.37 with Alpelisib + Pictilisib (first compound 1.265 µM). In addition, in the assay with Alpelisib + Pictilisib (first compound 4 µM), the relative viability was determined as 0.335.
